Reference: PubChem BioAssay (NCI)
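Dose response: 5 concentrations. Exposure: 48 h. Format: 96-well plates. Endpoint: linear interpolation; highest concentration if not reached. GI50 is the concentration that inhibits growth by half. Definition used: TGI = concentration required for complete inhibition of growth.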

Columns and labels:
Assay in all cases: NCI-60 cell line screen, 48 h
DU-145 prostate = tested on: DU-145 prostate
MCF7 breast = tested on: MCF7 breast
HOP-62 NSCLC = tested on: HOP-62 NSCLC
UACC-257 melanoma = tested on: UACC-257 melanoma
HS 578T breast = tested on: HS 578T breast
HCT-116 colon = tested on: HCT-116 colon
HCC-2998 colon = tested on: HCC-2998 colon
A498 renal = tested on: A498 renal
SK-MEL-2 melanoma = tested on: SK-MEL-2 melanoma
OVCAR-3 ovarian = tested on: OVCAR-3 ovarian
HOP-92 NSCLC = tested on: HOP-92 NSCLC
BT-549 breast = tested on: BT-549 breast
786-0 renal = tested on: 786-0 renal
A549 NSCLC = tested on: A549 NSCLC
NCI-H460 lung = tested on: NCI-H460 lung
M14 melanoma = tested on: M14 melanoma
SN12C renal = tested on: SN12C renal
RXF 393 renal = tested on: RXF 393 renal
CCRF-CEM leukemia = tested on: CCRF-CEM leukemia
OVCAR-5 ovarian = tested on: OVCAR-5 ovarian
OVCAR-8 ovarian = tested on: OVCAR-8 ovarian
SNB-19 CNS = tested on: SNB-19 CNS
HL-60(TB) leukemia = tested on: HL-60(TB) leukemia
OVCAR-4 ovarian = tested on: OVCAR-4 ovarian
TK-10 renal = tested on: TK-10 renal
CAKI-1 renal = tested on: CAKI-1 renal
T-47D breast = tested on: T-47D breast
LOX IMVI melanoma = tested on: LOX IMVI melanoma
SF-268 CNS = tested on: SF-268 CNS
SW-620 colon = tested on: SW-620 colon
KM12 colon = tested on: KM12 colon
ACHN renal = tested on: ACHN renal
SK-OV-3 ovarian = tested on: SK-OV-3 ovarian
RPMI-8226 leukemia = tested on: RPMI-8226 leukemia
NCI-H522 lung = tested on: NCI-H522 lung
SF-295 CNS = tested on: SF-295 CNS
UO-31 renal = tested on: UO-31 renal
MOLT-4 leukemia = tested on: MOLT-4 leukemia
MDA-MB-435 = tested on: MDA-MB-435
MDA-MB-231 breast = tested on: MDA-MB-231 breast
UACC-62 melanoma = tested on: UACC-62 melanoma
SR leukemia = tested on: SR leukemia
U251 CNS = tested on: U251 CNS
HT29 colon = tested on: HT29 colon
PC-3 prostate = tested on: PC-3 prostate
HCT-15 colon = tested on: HCT-15 colon
SNB-75 CNS = tested on: SNB-75 CNS
K-562 leukemia = tested on: K-562 leukemia
IGROV1 ovarian = tested on: IGROV1 ovarian
SF-539 CNS = tested on: SF-539 CNS
NCI-H23 lung = tested on: NCI-H23 lung
NCI/ADR-RES ovarian = tested on: NCI/ADR-RES ovarian
SK-MEL-28 melanoma = tested on: SK-MEL-28 melanoma
SK-MEL-5 melanoma = tested on: SK-MEL-5 melanoma
MALME-3M melanoma = tested on: MALME-3M melanoma
COLO 205 colon = tested on: COLO 205 colon
MDA-N = tested on: MDA-N
EKVX NSCLC = tested on: EKVX NSCLC
NCI-H226 lung = tested on: NCI-H226 lung

COc1cccc2c1C(=O)c1c(O)c3c(c(O)c1C2=O)C[C@@](O)(C(=O)COC(=O)c1cccnc1)C[C@@H]3OC1CC(N)C(O)C(C)O1 (stereo partly drawn)
GI50 (DU-145 prostate): 0.223 µM
TGI (DU-145 prostate): 14.1 µM
GI50 (MCF7 breast): 0.033 µM
TGI (MCF7 breast): 2.08 µM
GI50 (HOP-62 NSCLC): 0.124 µM
TGI (HOP-62 NSCLC): 1.28 µM
GI50 (UACC-257 melanoma): 0.172 µM
TGI (UACC-257 melanoma): 0.557 µM
GI50 (HS 578T breast): 0.175 µM
TGI (HS 578T breast): 0.984 µM
GI50 (HCT-116 colon): 0.0475 µM
TGI (HCT-116 colon): 0.492 µM
GI50 (HCC-2998 colon): 0.454 µM
TGI (HCC-2998 colon): 3.5 µM
GI50 (A498 renal): 0.113 µM
TGI (A498 renal): 0.334 µM
GI50 (SK-MEL-2 melanoma): 0.232 µM
TGI (SK-MEL-2 melanoma): 0.529 µM
GI50 (OVCAR-3 ovarian): 0.287 µM
TGI (OVCAR-3 ovarian): 2.52 µM
GI50 (HOP-92 NSCLC): 0.0859 µM
TGI (HOP-92 NSCLC): 0.737 µM
GI50 (BT-549 breast): 0.193 µM
TGI (BT-549 breast): 1.02 µM
GI50 (786-0 renal): 0.14 µM
TGI (786-0 renal): 1.25 µM
GI50 (A549 NSCLC): 0.0774 µM
TGI (A549 NSCLC): 0.533 µM
GI50 (NCI-H460 lung): 0.0269 µM
TGI (NCI-H460 lung): 0.215 µM
GI50 (M14 melanoma): 0.17 µM
TGI (M14 melanoma): 1.06 µM
GI50 (SN12C renal): 0.083 µM
TGI (SN12C renal): 3.68 µM
GI50 (RXF 393 renal): 0.169 µM
TGI (RXF 393 renal): 0.589 µM
GI50 (CCRF-CEM leukemia): 0.0574 µM
TGI (CCRF-CEM leukemia): 1.19 µM
GI50 (OVCAR-5 ovarian): 0.335 µM
TGI (OVCAR-5 ovarian): 4.53 µM
GI50 (OVCAR-8 ovarian): 0.183 µM
TGI (OVCAR-8 ovarian): 4.85 µM
GI50 (SNB-19 CNS): 0.0691 µM
TGI (SNB-19 CNS): 2.65 µM
GI50 (HL-60(TB) leukemia): 0.146 µM
TGI (HL-60(TB) leukemia): 1.64 µM
GI50 (OVCAR-4 ovarian): 0.28 µM
TGI (OVCAR-4 ovarian): 3.48 µM
GI50 (TK-10 renal): 0.149 µM
TGI (TK-10 renal): 0.845 µM
GI50 (CAKI-1 renal): 0.705 µM
TGI (CAKI-1 renal): 6.25 µM
GI50 (T-47D breast): 0.0982 µM
TGI (T-47D breast): 2.64 µM
GI50 (LOX IMVI melanoma): 0.0443 µM
TGI (LOX IMVI melanoma): 0.372 µM
GI50 (SF-268 CNS): 0.155 µM
TGI (SF-268 CNS): 1.53 µM
GI50 (SW-620 colon): 0.0605 µM
TGI (SW-620 colon): 2.17 µM
GI50 (KM12 colon): 0.284 µM
TGI (KM12 colon): 8.44 µM
GI50 (ACHN renal): 0.117 µM
GI50 (SK-OV-3 ovarian): 0.382 µM
TGI (SK-OV-3 ovarian): 26 µM
GI50 (RPMI-8226 leukemia): 0.114 µM
TGI (RPMI-8226 leukemia): 0.714 µM
GI50 (NCI-H522 lung): 0.0574 µM
TGI (NCI-H522 lung): 0.217 µM
GI50 (SF-295 CNS): 0.148 µM
TGI (SF-295 CNS): 2.29 µM
GI50 (UO-31 renal): 0.46 µM
TGI (UO-31 renal): 2.89 µM
GI50 (MOLT-4 leukemia): 0.0369 µM
TGI (MOLT-4 leukemia): 0.684 µM
GI50 (MDA-MB-435): 0.217 µM
TGI (MDA-MB-435): 1 µM
GI50 (MDA-MB-231 breast): 0.327 µM
TGI (MDA-MB-231 breast): 1.96 µM
GI50 (UACC-62 melanoma): 0.103 µM
TGI (UACC-62 melanoma): 0.268 µM
GI50 (SR leukemia): 0.0173 µM
TGI (SR leukemia): 2.4 µM
GI50 (U251 CNS): 0.0665 µM
TGI (U251 CNS): 0.592 µM
GI50 (HT29 colon): 0.199 µM
TGI (HT29 colon): 1.53 µM
GI50 (PC-3 prostate): 0.222 µM
TGI (PC-3 prostate): 1.43 µM
GI50 (HCT-15 colon): 1.07 µM
TGI (HCT-15 colon): 16.8 µM
GI50 (SNB-75 CNS): 0.084 µM
TGI (SNB-75 CNS): 0.534 µM
GI50 (K-562 leukemia): 0.15 µM
TGI (K-562 leukemia): 2.75 µM
GI50 (IGROV1 ovarian): 0.121 µM
TGI (IGROV1 ovarian): 3.79 µM
GI50 (SF-539 CNS): 0.0744 µM
TGI (SF-539 CNS): 0.673 µM
GI50 (NCI-H23 lung): 0.178 µM
TGI (NCI-H23 lung): 1.02 µM
GI50 (NCI/ADR-RES ovarian): 3.95 µM
TGI (NCI/ADR-RES ovarian): > 100 µM
GI50 (SK-MEL-28 melanoma): 0.203 µM
TGI (SK-MEL-28 melanoma): 0.689 µM
GI50 (SK-MEL-5 melanoma): 0.118 µM
TGI (SK-MEL-5 melanoma): 0.252 µM
GI50 (MALME-3M melanoma): 0.115 µM
TGI (MALME-3M melanoma): 0.353 µM
GI50 (COLO 205 colon): 0.168 µM
TGI (COLO 205 colon): 1.01 µM

C=C(Cl)C(Br)(CCl)CCC(Cl)C(C)C (stereo not drawn) (tested in a mixture with another compound)
TGI (DU-145 prostate): 3.25 µM
TGI (HOP-62 NSCLC): 4.76 µM
TGI (UACC-257 melanoma): 3.27 µM
TGI (HS 578T breast): 7.48 µM
TGI (HCT-116 colon): 3.92 µM
TGI (HCC-2998 colon): 10.7 µM
TGI (A498 renal): 31.6 µM
TGI (SK-MEL-2 melanoma): 2.97 µM
TGI (OVCAR-3 ovarian): 5.15 µM
TGI (HOP-92 NSCLC): 3.46 µM
TGI (BT-549 breast): 3.19 µM
TGI (786-0 renal): 2.74 µM
TGI (A549 NSCLC): 31.9 µM
TGI (NCI-H460 lung): 3.42 µM
TGI (M14 melanoma): 3.87 µM
TGI (SN12C renal): 3.08 µM
TGI (RXF 393 renal): 3.93 µM
TGI (CCRF-CEM leukemia): > 100 µM
TGI (OVCAR-5 ovarian): 6.69 µM
TGI (SNB-19 CNS): 10.7 µM
TGI (OVCAR-4 ovarian): 3.82 µM
TGI (TK-10 renal): 4.05 µM
TGI (CAKI-1 renal): 7.54 µM
TGI (LOX IMVI melanoma): 1.23 µM
TGI (SF-268 CNS): 3.53 µM
TGI (SW-620 colon): 2.96 µM
TGI (KM12 colon): 3.55 µM
TGI (ACHN renal): 3.98 µM
TGI (SK-OV-3 ovarian): 8.85 µM
TGI (NCI-H522 lung): 2.95 µM
TGI (SF-295 CNS): 19.6 µM
TGI (UO-31 renal): 3.01 µM
TGI (MOLT-4 leukemia): 48 µM
TGI (MDA-MB-435): 3.67 µM
TGI (MDA-MB-231 breast): 2.49 µM
TGI (UACC-62 melanoma): 2.59 µM
TGI (MDA-N): 3.45 µM
TGI (SR leukemia): > 100 µM
TGI (U251 CNS): 3.14 µM
TGI (EKVX NSCLC): 29.6 µM
TGI (NCI-H226 lung): 13.6 µM
TGI (HT29 colon): 2.75 µM
TGI (PC-3 prostate): 10.6 µM
TGI (SNB-75 CNS): 2.35 µM
TGI (K-562 leukemia): 24.2 µM
TGI (IGROV1 ovarian): 3.73 µM
TGI (SF-539 CNS): 3.72 µM
TGI (NCI-H23 lung): 3.79 µM
TGI (SK-MEL-28 melanoma): 3.21 µM
TGI (SK-MEL-5 melanoma): 3.9 µM
TGI (MALME-3M melanoma): 7.07 µM
TGI (COLO 205 colon): 5 µM
